Article PMC8700061, “Fragment-Sized and Bidentate (Immuno)Proteasome Inhibitors Derived from Cysteine and Threonine Targeting Warheads” (Cells, 2021)
Like-named read-outs stand apart in the source and are kept apart here. Marks after values point to notes of the source that are not given here.

Tests used:
β1 subunit of human cCP = biological target: T1, β1 subunit of human cCP (Homo sapiens, UniProt P28072+Q99436); experiment: Inhibition of β1 activity (RA, IC50), Ac-nLPnLD-AMC; format: biochemical; conditions: PA28α; for IC50: 30 min pre-incubation
T1 construct: purchased Boston Biochem, Inc., Cambridge, MA, USA
Experimental: (§1) Residual activity measurements were performed at 10 μM final concentrations in the assay buffer (0.01% SDS, 50 mM Tris-HCl, 0.5 mM EDTA, pH 7.4). Stock solutions of the compounds were prepared in DMSO. To 50 μL of each compound in buffer, 25 μL of 0.8 nM human iCP or human cCP (both from Boston Biochem, Inc., Cambridge, MA, USA) were added. After incubation at 37 °C for 30 min, the reaction was started by adding of 25 μL of 100 μM relevant fluorogenic substrate: acetyl-Nle-Pro-Nle-Asp-AMC (Ac-nLPnLD-AMC, (Bachem, Bubendorf, Switzerland)) for β1, acetyl-Pro-Ala-Leu-7-amino-4-methylcoumarin (Ac-PAL-AMC, (Boston Biochem, Inc., Cambridge, MA, USA)) for β1i, t-butyloxycarbonyl-Leu-Arg-Arg-7-amino-4-methylcoumarin (Boc-LRR-AMC, (Bachem, Bubendorf, Switzerland)) for β2 and β2i, succinyl-Leu-Leu-Val-Tyr-7-amino-4-methylcoumarin (Suc-LLVY-AMC) (Bachem, Bubendorf, Switzerland) for β5 and β5i. Reaction progress was recorded on BioTek Synergy HT microplate reader by monitoring fluorescence at 460 nm (λex = 360 nm) for 90 min at 37 °C. The initial linear ranges were used to calculate velocity and determine residual activity. In the case of evaluation of β1, βi, β2, and β2i activities, the assay buffer was modified by replacing SDS with the proteasomal activator PA28α (Boston Biochem, Inc., Cambridge, MA, USA).
(§2) Final assay mixtures contained 0.2 nM human iCP or 0.2 nM human cCP in assay buffer (0.01% SDS (or PA28α in cases of β1, β1i subunits), 50 mM Tris-HCl, 0.5 mM EDTA, pH 7.4). Inhibitors were dissolved in DMSO and added to the black 96-well plates for at least eight different concentrations (the final concentration of DMSO was not more than 1%). After 30 min of incubation at 37 °C, the reaction was started by adding the substrate Suc-LLVY-AMC (for β5 and β5i) or Ac-nLPnLD-AMC (for β1) or Ac-PAL-AMC (for β1i). Fluorescence was monitored at 460 nm (λex = 360 nm) for 90 min at 37 °C. The progress of the reactions was recorded and the initial linear ranges were used to calculate the velocity. IC50 values were calculated using GraphPadPrism (GraphPad Software, San Diego, CA, USA) and are means from at least three independent determinations.

β5i subunit of human iCP = biological target: T2, β5i subunit of human iCP (Homo sapiens, UniProt P20618+P28062); experiment: Inhibition of β5i activity (RA at 10 µM, IC50, IC50 shift), Suc-LLVY-AMC; format: biochemical; conditions: for Group efficiency (GE): ΔpIC50/ΔNheavy with compound 1 as reference
T2 construct: purchased Boston Biochem, Inc., Cambridge, MA, USA
Experimental: as §1
as §2, with “After 30 min of incubation at 37 °C, the reaction was started by adding the substrate Suc-LLVY-AMC (for β5 and β5i) or Ac-nLPnLD-AMC (for β1) or Ac-PAL-AMC (for β1i).” left out

β1i subunit of human iCP = biological target: T3, β1i subunit of human iCP (Homo sapiens, UniProt P28065+P40306); experiment: Inhibition of β1i activity (RA, IC50), Ac-PAL-AMC; format: biochemical; conditions: PA28α; for IC50: 30 min pre-incubation; for remaining activity at 10 µM: Table 3, read-out: β1i residual activity at 10 µM
T3 construct: purchased Boston Biochem, Inc., Cambridge, MA, USA
Experimental: as §1, §2

[1] = UV-Vis-based stability assay in buffer; format: physicochemical; conditions: for Stability in Buffer (UV-Vis-based assay): after 1 h, assay buffer pH 7.4, 37 °C, 50 µM; for Stability in buffer solutions: assay buffer / PBS pH 7.4
Experimental: The aqueous stability of all compounds was determined spectrophotometrically by following the changes in the absorption spectra of the compounds. The buffer solution (50 mM Tris-HCl, 0.5 mM EDTA, pH 7.4) was pre-incubated at 37 °C. Aliquots of the compounds studied (1 mM in DMSO) were transferred to a 96-well flat-bottom UV-transparent microplate (Corning, CLS3635, Corning Inc, Corning, NY, USA) containing the buffer solution to obtain a 50 μM solution containing 5% DMSO (final volume, 300 μL). The plate was incubated without lid at 37 °C in a plate reader (Synergy H4, BioTek Instruments, Inc., Santa Clara, CA, USA) and the absorbance spectrum (244–400 nm) was acquired in sweep mode after 0, 15, 30, 60, 120, 180, and 240 min using a discontinuous kinetic procedure in Gen5 software (BioTek Instruments, Inc., Santa Clara, CA, USA). The time required to read the entire plate was 3 min. To determine the baseline, the compound solution was replaced with pure DMSO and subtracted from each reading. Compounds with an absorbance maximum of less than 0.20 AU were not evaluated using these assays due to the high experimental error. For other compounds, the relative absorbance difference between the first time point and 60 min at the most responsive wavelength was calculated. If the relative absorbance difference for the compound in the buffer was below 0.1, between 0.1–0.2, and above 0.2, the compound was classified as stable, intermediate, and unstable, respectively.

β5 subunit of human cCP = biological target: T4, β5 subunit of human cCP (Homo sapiens, UniProt P20618+P28074); experiment: Inhibition of β5 activity (RA, IC50), Suc-LLVY-AMC; format: biochemical; conditions: 30 min pre-incubation, SDS
T4 construct: purchased Boston Biochem, Inc., Cambridge, MA, USA
Experimental: as §1, §2

[2] = 0 min pre-incubation (IC50 shift), read-out: IC50 (µM), β5i, without pre-incubation
[3] = 30 min pre-incubation, SDS activator, read-out: IC50 (µM), β5i
[4] = 30 min pre-incubation, SDS activator

Structure (SMILES)	IC50 (β1 subunit of human cCP) [µM]	IC50 (β5i subunit of human iCP; [2]) [µM]	IC50 (β5i subunit of human iCP; [3]) [µM]	IC50 (β1i subunit of human iCP) [µM]	Stability in Buffer (UV-Vis-based assay) [1]	IC50 (β5 subunit of human cCP) [µM]	remaining activity at 10 µM (β1 subunit of human cCP; 10 µM, Table 3) [%]	IC50 (µM), β5i (β5i subunit of human iCP; [4])	Group efficiency (GE) (β5i subunit of human iCP)	remaining activity at 10 µM (β1i subunit of human iCP) [%]	β5 (RA [%]) at 10 µM (β5 subunit of human cCP) [% ^c]	Stability in buffer solutions [1]	β1 (RA [%]) (β1 subunit of human cCP; 10 µM, Table 3) [%]	IC50 (β5i subunit of human iCP; IC50 (µM), β5i, 60-min pre-incubation, 60 min pre-incubation (IC50 shift)) [µM]
CC(C)C[C@H](NC(=O)CCn1c(C#N)nc2cccc(Cl)c21)B1O[C@@H]2C[C@@H]3C[C@@H](C3(C)C)[C@]2(C)O1 [Compound 38]	5 ± 0.1	6.4 ± 0.7	0.6 ± 0.1	1.9	stable ^b,c (relative absorbance difference for the compound in the buffer was below 0.1)	2 ± 0.7								
N#Cc1nc2cc(O)ccc2o1 [Compound 11]			4.2 ± 2.5		stable ^c (relative absorbance difference for the compound in the buffer was below 0.1)		> 90	single digit micromolar	1.30	> 90	53			
C=Cc1nc(CC(=O)N[C@@H](CC(C)C)B2O[C@@H]3C[C@@H]4C[C@@H](C4(C)C)[C@]3(C)O2)cs1 [Compound 28]	4.8 ± 0.2		1.4	2.2 ± 0.1		8.2								
CC(=O)Oc1ccc2oc(C#N)nc2c1 [Compound 15]			7.4 ± 1.7		stable ^c (relative absorbance difference for the compound in the buffer was below 0.1)		> 90		0.26	> 90	55			
N#Cc1nc2cccc(O)c2o1 [Compound 13]			2.1 ± 1.2		stable ^c (relative absorbance difference for the compound in the buffer was below 0.1)	11 ± 9	76	single digit micromolar	1.60	> 90				
CC(C)C[C@H](NC(=O)Cc1ccc2oc(C#N)nc2c1)B(O)O [Compound 40]	3.7 ± 0.9		2.4 ± 1	2.1 ± 0.1	stable ^b (relative absorbance difference for the compound in the buffer was below 0.1)	2 ± 0.7						stable		
CC(C)C[C@H](NC(=O)Cc1ccc2oc(C#N)nc2c1)B1O[C@@H]2C[C@@H]3C[C@@H](C3(C)C)[C@]2(C)O1 [Compound 39]	2.9 ± 0.4	3.2 ± 0.4	3.1 ± 0.3	1.3	stable ^b,c (relative absorbance difference for the compound in the buffer was below 0.1)	3.6 ± 1.1						stable		
CC(=O)Oc1cccc2oc(C#N)nc12 [Compound 14]			19 ± 9		stable ^c (relative absorbance difference for the compound in the buffer was below 0.1)		> 90	single digit micromolar	0.16	> 90	56			
CC(C)C[C@H](NC(=O)CCCn1c(C#N)nc2ccccc21)B1O[C@@H]2C[C@@H]3C[C@@H](C3(C)C)[C@]2(C)O1 [Compound 31]	8.4 ± 1.6		5.7 ± 0.9	6 ± 3.2	stable ^b,c (relative absorbance difference for the compound in the buffer was below 0.1)	13 ± 4								
CC(C)C[C@H](NC(=O)CCn1c(C#N)nc2ccccc21)B1O[C@@H]2C[C@@H]3C[C@@H](C3(C)C)[C@]2(C)O1 [Compound 30]	0.4	1.5 ± 0.3	0.6	1.2 ± 0.1	stable ^b,c (relative absorbance difference for the compound in the buffer was below 0.1)	0.7 ± 0.1								
COc1cccc2oc(C#N)nc12 [Compound 6]			11 ± 7	78	stable ^c,d (relative absorbance difference for the compound in the buffer was below 0.1)				0.44		63		82	
N#Cc1nc2c(O)cccc2o1 [Compound 10]		10 ± 1	3.6 ± 2.8		stable ^c (relative absorbance difference for the compound in the buffer was below 0.1)	30 ± 12	> 90	single digit micromolar	1.36	> 90				0.5 ± 0.07
CC(C)C[C@H](NC(=O)CCCn1c(C#N)nc2ccccc21)B(O)O [Compound 35]	13 ± 2		7.9 ± 0.5	9.4 ± 1.9	stable ^b (relative absorbance difference for the compound in the buffer was below 0.1)	16 ± 8								
CC(C)C[C@H](NC(=O)CCn1c(C#N)nc2ccccc21)B(O)O [Compound 34]	3.2 ± 0.2	5.1	2.2 ± 0.6	2.8 ± 0.5		1.8 ± 0.4								
